Patent US10308629B2, “1H-pyrrol-3-amines” (BAYER PHARMA AKTIENGESELLSCHAFT, priority 2015, dated 2019)

Target: (recombinant) catalytic domain of human Bub1 (amino acids 704-1085) (Homo sapiens (Human), UniProt O43683)
Assay: Bub1 kinase assay (TR-FRET)
Format: biochemical
Conditions: ATP 10 μM, peptide substrate 1 μM, 60 min at 22° C., read-out: Inhibition of Bub1 kinase IC50
Source text: Bub1-inhibitory activities of compounds described in the present invention were quantified using a time-resolved fluorescence energy transfer (TR-FRET) kinase assay which measures phosphorylation of the synthetic peptide Biotin-Ahx-VLLPKKSFAEPG (SEQ ID No. 1) (C-terminus in amide form), purchased from e.g. Biosyntan (Berlin, Germany) by the (recombinant) catalytic domain of human Bub1 (amino acids 704-1085), expressed in Hi5 insect cells with an N-terminal His6-tag and purified by affinity-(Ni-NTA) and size exclusion chromatography.
In a typical assay 11 different concentrations of each compound (0.1 nM, 0.33 nM, 1.1 nM, 3.8 nM, 13 nM, 44 nM, 0.15 μM, 0.51 μM, 1.7 μM, 5.9 μM and 20 μM) were tested in duplicate within the same microtiter plate. To this end, 100-fold concentrated compound solutions (in DMSO) were previously prepared by serial dilution (1:3.4) of 2 mM stocks in a clear low volume 384-well source microtiter plate (Greiner Bio-One, Frickenhausen, Germany), from which 50 nl of compounds were transferred into a black low volume test microtiter plate from the same supplier. Subsequently, 2 μL of Bub1 (the final concentration of Bub1 was adjusted depending on the activity of the enzyme lot in order to be within the linear dynamic range of the assay: typically ˜200 ng/mL were used) in aqueous assay buffer [50 mM Tris/HCl pH 7.5, 10 mM magnesium chloride (MgCl2), 200 mM potassium chloride (KCl), 1.0 mM dithiothreitol (DTT), 0.1 mM sodium ortho-vanadate, 1% (v/v) glycerol, 0.01% (w/v) bovine serum albumine (BSA), 0.005% (v/v) Trition X-100 (Sigma), 1× Complete EDTA-free protease inhibitor mixture (Roche)] were added to the compounds in the test plate and the mixture was incubated for 15 min at 22° C. to allow pre-equilibration of the putative enzyme-inhibitor complexes before the start of the kinase reaction, which was initiated by the addition of 3 μL 1.67-fold concentrated solution (in assay buffer) of adenosine-tri-phosphate (ATP, 10 μM final concentration) and peptide substrate (1 μM final concentration). The resulting mixture (5 μL final volume) was incubated at 22° C. during 60 min. and the reaction w as stopped by the addition of 5 μL of an aqueous EDTA-solution (50 mM EDTA, in 100 mM HEPES pH 7.5 and 0.2% (w/v) bovine serum albumin) which also contained the TR-FRET detection reagents (0.2 μM streptavidin-XL665 [Cisbio Bioassays, Codolet, France] and 1 nM anti-phosho-Serine antibody [Merck Millipore, cat. #35-002] and 0.4 nM LANCE EU-W1024 labeled anti-mouse IgG antibody [Perkin-Elmer, product no. AD0077, alternatively a Terbium-cryptate-labeled anti-mouse IgG antibody from Cisbio Bioassays can be used]). The stopped reaction mixture was further incubated 1 h at 22° C. in order to allow the formation of complexes between peptides and detection reagents. Subsequently, the amount of product was evaluated by measurement of the resonance energy transfer from the Eu-chelate-antibody complex recognizing the Phosphoserine residue to the streptavidin-XL665 bound to the biotin moiety of the peptide. To this end, the fluorescence emissions at 620 nm and 665 nm after excitation at 330-350 nm were measured in a TR-FRET plate reader, e.g. a Rubystar or Pherastar (both from BMG Labtechnologies, Offenburg, Germany) or a Viewlux (Perkin-Elmer) and the ratio of the emissions (665 nm/622 nm) was taken as indicator for the amount of phosphorylated substrate. The data were normalised using two sets of control wells for high−(=enzyme reaction without inhibitor=0%=Minimum inhibition) and low−(=all assay components without enzyme=100%=Maximum inhibition) Bub1 activity. IC50 values were calculated by fitting the normalized inhibition data to a 4-parameter logistic equation (Minimum, Maximum, IC50, Hill; Y=Max+(Min−Max)/(1+(X/IC50)Hill)).

Sequence of (recombinant) catalytic domain of human Bub1 (amino acids 704-1085) (O43683 704-1085): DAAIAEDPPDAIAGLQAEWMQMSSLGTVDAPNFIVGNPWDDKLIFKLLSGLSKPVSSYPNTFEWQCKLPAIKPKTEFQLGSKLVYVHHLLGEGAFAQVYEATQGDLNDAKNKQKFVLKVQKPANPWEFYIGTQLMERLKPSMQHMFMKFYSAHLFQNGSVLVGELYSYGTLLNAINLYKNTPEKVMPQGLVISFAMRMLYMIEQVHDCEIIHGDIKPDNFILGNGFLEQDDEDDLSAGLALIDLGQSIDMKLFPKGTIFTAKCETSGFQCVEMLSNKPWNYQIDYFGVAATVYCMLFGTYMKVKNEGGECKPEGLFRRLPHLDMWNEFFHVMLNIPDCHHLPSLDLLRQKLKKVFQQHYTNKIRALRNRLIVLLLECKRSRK

IC50 | Compound
52 nM | 1-Fluoro-N-4-[[(4aR,5aR) or (4aS,5aS)]-5a-methyl-4-oxo-3-(phenylamino)-1,4,4a,5,5a,6-hexahydrocyclopropa[f]indol-2-yl]pyridin-2-ylcyclopropanecarboxamide [Example 31]
17 nM | 1-Fluoro-N-4-[[(4aS,5aS) or (4aR,5aR)]-5a-methyl-4-oxo-3-(phenylamino)-1,4,4a,5,5a,6-hexahydrocyclopropa[f]indol-2-yl]pyridin-2-ylcyclopropanecarboxamide [Example 30]
22 nM | 1-Methyl-N-4-[[(4aR,5aR) or (4aS,5aS)]-5a-methyl-4-oxo-3-(phenylamino)-1,4,4a,5,5a,6-hexahydrocyclopropa[f]indol-2-yl]pyridin-2-yl-1H-pyrazole-5-carboxamide [Example 43]
11 nM | 1-Methyl-N-4-[[(4aS,5aS) or (4aR,5aR)]-5a-methyl-4-oxo-3-(phenylamino)-1,4,4a,5,5a,6-hexahydrocyclopropa[f]indol-2-yl]pyridin-2-yl-1H-pyrazole-5-carboxamide [Example 42]
53 nM | 2-Fluoro-2-methyl-N-4-[[(4aR,5aR) or (4aS,5aS)]-5a-methyl-4-oxo-3-(phenylamino)-1,4,4a,5,5a,6-hexahydrocyclopropa[f]indol-2-yl]pyridin-2-ylpropanamide [Example 41]
25 nM | CC1CCC(=O)c2c([nH]c(-c3ccnc(N)c3)c2Nc2ccccc2)C1 (racemic) [Example 24, (7RS)-2-(2-Aminopyridin-4-yl)-7-methyl-3-(phenylamino)-5,6,7,8-tetrahydrocyclohepta[b]pyrrol-4(1H)-one]
7 nM | CC(=O)Nc1cc(-c2[nH]c3c(c2Nc2ccccc2)C(=O)CCC(C)C3)ccn1 (racemic) [Example 25, N-{4-[(7RS)-3-Anilino-7-methyl-4-oxo-1,4,5,6,7,8-hexahydrocyclohepta[b]pyrrol-2-yl]pyridin-2-yl}acetamide]
146 nM | CC1(C)[C@@H]2C[C@H]1C(=O)c1c2[nH]c(-c2ccncc2)c1Nc1ccccc1 (relative stereo) [Example 1, rel-(5R,7S)-6,6-Dimethyl-3-(phenylamino)-2-(pyridin-4-yl)-1,5,6,7-tetrahydro-4H-5,7-methanoindol-4-one]
1160 nM | CC1(C)[C@@H]2C[C@H]1C(=O)c1c2[nH]c(-c2ccnc(N)c2)c1Nc1ccccc1 (relative stereo) [Example 2, rel-(5R,7S)-2-(2-Aminopyridin-4-yl)-6,6-dimethyl-3-(phenylamino)-1,5,6,7-tetrahydro-4H-5,7-methanoindol-4-one]
115 nM | CC(=O)Nc1cc(-c2[nH]c3c(c2Nc2ccccc2)C(=O)[C@@H]2C[C@H]3C2(C)C)ccn1 (relative stereo) [Example 5, N-4-[rel-(5R,7S)-6,6-Dimethyl-4-oxo-3-(phenylamino)-4,5,6,7-tetrahydro-1H-5,7-methanoindol-2-yl]pyridin-2-ylacetamide]
63 nM | CC1(C)[C@@H]2C[C@H]1C(=O)c1c2[nH]c(-c2ccnc(NC(=O)C3CC3)c2)c1Nc1ccccc1 (relative stereo) [Example 6, N-4-[rel-(5R,7S)-6,6-Dimethyl-4-oxo-3-(phenylamino)-4,5,6,7-tetrahydro-1H-5,7-methanoindol-2-yl]pyridin-2-ylcyclopropanecarboxamide]
68 nM | COC(=O)Nc1cc(-c2[nH]c3c(c2Nc2ccccc2)C(=O)[C@@H]2C[C@H]3C2(C)C)ccn1 (relative stereo) [Example 7, methyl 4-[rel-(5R,7S)-6,6-Dimethyl-4-oxo-3-(phenylamino)-4,5,6,7-tetrahydro-1H-5,7-methanoindol-2-yl]pyridin-2-ylcarbamate]
375 nM | CCNC(=O)Nc1cc(-c2[nH]c3c(c2Nc2ccccc2)C(=O)[C@@H]2C[C@H]3C2(C)C)ccn1 (relative stereo) [Example 8, 1-4-[rel-(5R,7S)-6,6-Dimethyl-4-oxo-3-(phenylamino)-4,5,6,7-tetrahydro-1H-5,7-methanoindol-2-yl]pyridin-2-yl-3-ethylurea]
240 nM | CC1(C)[C@@H]2C[C@H]1C(=O)c1c2[nH]c(-c2ccnc(NC(=O)NC3CC3)c2)c1Nc1ccccc1 (relative stereo) [Example 9, 1-cyclopropyl-3-4-[rel-(5R,7S)-6,6-Dimethyl-4-oxo-3-(phenylamino)-4,5,6,7-tetrahydro-1H-5,7-methanoindol-2-yl]pyridin-2-ylurea]
35 nM | CC1(C)[C@@H]2C[C@H]1C(=O)c1c2[nH]c(-c2ccncc2F)c1Nc1ccccc1 (relative stereo) [Example 10, rel-(5R,7S)-2-(3-Fluoropyridin-4-yl)-6,6-dimethyl-3-(phenylamino)-1,5,6,7-tetrahydro-4H-5,7-methanoindol-4-one]
19 nM | CN1C[C@H]2C(=O)c3c([nH]c(-c4ccncc4)c3Nc3ccccc3)C[C@H]2C1=O (relative stereo) [Example 11, rel-(4aR,7aS)-6-Methyl-3-(phenylamino)-2-(pyridin-4-yl)-1,4a,5,6,7a,8-hexahydropyrrolo[3,4-f]indole-4,7-dione]
7 nM | O=C1c2c([nH]c(-c3ccncc3)c2Nc2ccccc2)C[C@H]2C[C@@H]12 (relative stereo) [Example 12, rel-(4aR,5aR)-3-(Phenylamino)-2-(pyridin-4-yl)-4a,5,5a,6-tetrahydrocyclopropa[f]indol-4(1H)-one]
6 nM | CC(=O)Nc1cc(-c2[nH]c3c(c2Nc2ccccc2)C(=O)[C@@H]2C[C@@H]2C3)ccn1 (relative stereo) [Example 15, rel-(4aR,5aR)-N-4-[4-oxo-3-(Phenylamino)-1,4,4a,5,5a,6-hexahydrocyclopropa[f]indol-2-yl]pyridin-2-ylacetamide]
6 nM | C[C@@]12Cc3[nH]c(-c4ccncc4)c(Nc4ccccc4)c3C(=O)[C@@H]1C2 (relative stereo) [Example 16, rel-(4aR,5aR)-5a-Methyl-3-(phenylamino)-2-(pyridin-4-yl)-4a,5,5a,6-tetrahydrocyclopropa[f]indol-4(1H)-one]
630 nM | C[C@@]12Cc3[nH]c(-c4ccnc(NS(C)(=O)=O)c4)c(Nc4ccccc4)c3C(=O)[C@@H]1C2 (relative stereo) [Example 27, N-{4-[rel-(4aR,5aR)-3-Anilino-5a-methyl-4-oxo-1,4,4a,5,5a,6-hexahydrocyclopropa[f]indol-2-yl]pyridin-2-yl}methanesulfonamide]
133 nM | C[C@@]12C[C@@H]1C(=O)c1c([nH]c(-c3ccnc(NC(=O)C4(F)CC4)c3)c1Nc1ccccc1)C2=O (relative stereo) [Example 29, 1-Fluoro-N-4-[rel-(4aS,5aR)-5a-methyl-4,6-dioxo-3-(phenylamino)-1,4,4a,5,5a,6-hexahydrocyclopropa[f]indol-2-yl]pyridin-2-ylcyclopropanecarboxamide]
30 nM | C[C@@]12C[C@@H]1C(=O)c1c([nH]c(-c3ccnc(NC(=O)C4CC4)c3)c1Nc1ccccc1)C2=O (relative stereo) [Example 32, N-4-[rel-(4aS,5aR)-5a-Methyl-4,6-dioxo-3-(phenylamino)-1,4,4a,5,5a,6-hexahydrocyclopropa[f]indol-2-yl]pyridin-2-ylcyclopropanecarboxamide]

Compound | IC50
2-Fluoro-2-methyl-N-4-[[(4aS,5aS) or (4aR,5aR)]-5a-methyl-4-oxo-3-(phenylamino)-1,4,4a,5,5a,6-hexahydrocyclopropa[f]indol-2-yl]pyridin-2-ylpropanamide [Example 40] | 22 nM
